What is called melting point is the temperature, or range, at which the solid turns liquid. The IC50 is the concentration that gives 50% inhibition. A low value points to inhibition by little substance.

Where a name gives a salt, the structure may show the parent alone.

The test system of one series is BxPC3. The series can be described thus: Cell based screen for inhibitors of Raf and/or Mek kinase (SRB), BxPC3. As to conditions: Homo sapiens, BXPC-3, BxPC3 cells, (a)/(b) = average of two/three runs. As to the method: [The procedure below names another cell line; the source lists this cell line under the same test.] (§1) Cell Based Screen for Inhibitors of Raf and/or Mek Kinase. Materials
(§2) Cells are plated at 2000 cells per well for cell line LoVo and 1500 cells for cell line CaCo-2 in 96 well plates. Cells are plated in media (200 μl) and allowed to adhere overnight at 37° C. At 24 hours post plating, compounds are added directly at a volume of 0.5 μl. For the qualitative screen (compounds screened at 25 μM) compound is added directly to cells. For the quantitative screen, compound is first diluted in DMSO to generate concentrations of compound or reference standard of: 1, 5, 10 and 25 μM. It is advisable to make the dilutions in an identical 96 well plate so that compounds can be added using a multichannel micropipettor set at 0.5 μl. The cells are then incubated for four days after which the media is removed using a 12 well manifold by first tipping the plate forward at a 45 degree angle and then inserting the manifold in an upright orientation to prevent the tips of the manifold from disturbing cells at the bottom of the plate. 200 μl of normal saline is then added to each well using an 8 well multichannel pipettor, followed by the careful addition of 50 μl of 50% TCA. The plates are then incubated for 2 hours at 4° C., after which the supernatant is removed using the same technique as above and the plated cells are washed twice with 200 μl water. The plates are then air dried and 50 μl of SRB stock solution is carefully added so that the entire bottom of each well is covered. This again can be done using an 8 well multichannel pipettor. The SRB is incubated with fixed cells for 15 minutes at room temperature after which the SRB is removed with the manifold as described above and the plates washed twice with 350 μl of 1% acetic acid per well each time. The plates are then air dried after which the bound SRB is released from protein by the addition of 200 μl of Tris base. Resolubilizing the SRB is aided by placing the plates on a rotator for 15-30 minutes. The absorbance of each well is determined at 550 or 562 nm using a microtiter plate reader.
(§3) Each compound or dilution thereof is performed in triplicate. Outliers are identified by visual inspection of the data. Each plate should have a “0” control (vehicle only).
(§4) Quantitative Assay: A standard curve is constructed by plotting the concentration of compound against the average absorbance calculated at that concentration. A curve is plotted and the concentration at which the curve passes through the 50% the absorbance mark seen in the “0” control well is the IC50 calculated for that compound. Multiple entries for a given compound indicate that it is tested multiple times.

Series [1] deals with T1, Raf and/or Mek kinase (human c-Raf, GST-MEK1) (Homo sapiens, UniProt P04049+Q02750).
T1 construct: Sf9 insect cell lysate containing full length 6his-tagged recombinant human c-Raf; 6His; host or cells: Sf9 insect cells (c-Raf, used as lysate); E. coli (MEK1-GST, GST-MAPK)
The series is described as follows: Raf/Mek kinase cascade assay. The note with it: c-Raf dependent activation of GST-MEK and GST-MAPK, phospho-MAPK ELISA; (a)/(b)/(c) = average of two/three/four runs. In kind it is biochemical. As to the method: Raf/Mek Kinase Cascade Assay Procedure
(Specific Activity: ˜200 U/ml). Human Non-active Mek-1-GST and human GST-MAP kinase (recombinant proteins produced in E. coli).
Stock Solutions Raf/Mek Cascade Assay:
• 1. Assay Dilution Buffer (ADB): 20 mM MOPS, pH 7.2, 25 mM β-glycerol phosphate, 5 mM EGTA, 1 mM sodium orthovanadate, 1 mM dithiothreitol; • 2. Magnesium/ATP Cocktail: 500 μM cold ATP and 75 mM magnesium chloride in ADB; • 3. Active Kinase: Human Active c-Raf: Use at 0.4 U per assay point; • 4. Non-active GST-MEK1: Use at 0.1 μg per assay point; and • 5. Non-active GST-p42 MAP Kinase: Use at 1.0 μg per assay point. Stock Solutions ELISA: • 1. TBST-Tris (50 mM, pH 7.5), NaCl (150 mM), Tween-20 (0.05%); • 2. Superblock (Pierce); • 3. Anti-GST Ab (Pharmacia); • 4. Anti-Phospho MAPK (Sigma); and • 5. Anti-Mouse Ab/Europium conjugate (Wallac). Assay Procedure: First Stage: c-Raf Dependent Activation of GST-MEK and GST-MAPK • 1. Add […] of ADB per assay (i.e. per well of a 96 well plate); • 2. Add 10 ml of 0.5 mM cold ATP and 75 mM magnesium chloride in ADB; • 3. Add 2 ml of c-Raf (0.4 U/assay), in conjunction with 1.6 ml non-active MEK1 (0.4 […]/assay); • 4. Add 4 ml of non-active GST-p42 MAP Kinase (1.0 mg/assay); • 5. Incubate for 60 minutes at 30° C. in a shaking incubator; • 6. Transfer this mixture to an anti-GST Ab coated 96 well plate (Nunc Immunosorb plates coated o/n with a-GST, then blocked with Pierce Superblock); • 7. Incubate for 60 minutes at 30° C. in a shaking incubator; • 8. Wash 3× with TBST, add Anti-Phospho MAPK (Sigma) (1:3000); • 9. Incubate for 60 minutes at 30° C. in a shaking incubator; • 10. Wash 3× with TBST, add Anti-Mouse Ab/Europium conjugate (Wallac) (1:500); • 11. Incubate for 60 minutes at 30° C. in a shaking incubator; • 12. Wash 3× with TBST, Read plates in Wallac Victor model Plate Reader; and • 13. Collect data analyze in Excel for single point and IC50 determinations.
Single point assay—% inhibition at […] (% Inhibition=1−cpd·treated sample/untreated control). IC50 determinations—done on compounds from single point assays with >80% inhibition. Typically, the Raf/Mek assay is run at compound concentrations from 10 μM to 1 nM in half log dilutions. (% inhibition is determined for each compound concentration). The results obtained measure Raf and/or Mek kinase inhibition, and for representative compounds of this invention are listed in Table 1.
In general terms: An ELISA detects its analyte on a solid surface through an enzyme-linked reagent.

A further series deals with LoVo. The series is described as follows: Cell based screen for inhibitors of Raf and/or Mek kinase (SRB), LoVo. Set-up: species or system human. As to conditions: LoVo cells, four days incubation, (a)/(b)/(c) = average of two/three/five runs. As for the experimental part: as §1
Cell Lines: Human adenocarcinoma cell line LoVo, known to be growth inhibited by low nM concentrations of a reference standard inhibitor of Ras and human adenocarcinoma cell line CaCo-2, known to be growth resistant to the same reference compound.
Cell Media: RPMI 1640 with 10% Fetal Bovine Serum supplemented with L-glutamine and Penicillin/Streptomycin.
as §2, §3, §4

T1 sequence (P04049 whole entry): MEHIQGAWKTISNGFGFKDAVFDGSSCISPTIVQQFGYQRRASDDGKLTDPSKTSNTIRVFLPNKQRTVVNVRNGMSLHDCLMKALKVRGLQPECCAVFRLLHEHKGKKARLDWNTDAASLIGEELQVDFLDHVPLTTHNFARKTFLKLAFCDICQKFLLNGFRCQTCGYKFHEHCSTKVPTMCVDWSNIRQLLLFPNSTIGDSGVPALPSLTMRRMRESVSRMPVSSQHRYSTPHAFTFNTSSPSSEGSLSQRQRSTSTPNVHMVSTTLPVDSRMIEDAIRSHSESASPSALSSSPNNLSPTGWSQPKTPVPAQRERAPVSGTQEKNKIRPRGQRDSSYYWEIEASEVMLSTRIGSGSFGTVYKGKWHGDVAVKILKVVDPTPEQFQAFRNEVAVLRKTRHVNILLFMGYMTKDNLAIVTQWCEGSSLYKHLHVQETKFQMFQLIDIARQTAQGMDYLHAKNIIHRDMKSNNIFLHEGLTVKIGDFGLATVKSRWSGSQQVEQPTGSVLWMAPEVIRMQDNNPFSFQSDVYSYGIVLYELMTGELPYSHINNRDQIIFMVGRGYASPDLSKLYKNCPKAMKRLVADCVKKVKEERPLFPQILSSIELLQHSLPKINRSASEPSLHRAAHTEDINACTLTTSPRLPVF
T1 sequence (Q02750 whole entry): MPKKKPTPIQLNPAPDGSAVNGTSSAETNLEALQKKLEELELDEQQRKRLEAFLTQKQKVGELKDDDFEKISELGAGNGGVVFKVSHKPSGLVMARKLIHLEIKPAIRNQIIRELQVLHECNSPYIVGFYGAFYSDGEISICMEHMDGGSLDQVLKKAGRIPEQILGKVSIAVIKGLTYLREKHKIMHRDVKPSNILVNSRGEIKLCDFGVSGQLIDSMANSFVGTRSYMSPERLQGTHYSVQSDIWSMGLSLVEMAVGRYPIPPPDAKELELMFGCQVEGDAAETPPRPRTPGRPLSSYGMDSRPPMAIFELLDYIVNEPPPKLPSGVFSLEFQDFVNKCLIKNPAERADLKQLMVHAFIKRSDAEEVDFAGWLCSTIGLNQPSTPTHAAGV

Regarding `N#Cc1cnc2cc(N3CCC(N4CCCC4)CC3)c([N+](=O)[O-])cc2c1Cl` [Example 25, 4-chloro-6-nitro-7-(4-pyrrolidin-1-ylpiperidin-1-yl)quinoline-3-carbonitrile], the melting point is 255 to 265 °C (dec.).
As for `Cn1ccnc1Sc1ccc(Nc2c(C#N)cnc3cc(N4CCC(N5CCCC5)CC4)c([N+](=O)[O-])cc23)cc1Cl` [Example 26, 4-({3-Chloro-4-[(1-methyl-1H-imidazole-2-yl)thio]phenyl}amino)-6-nitro-7-(4-pyrrolidin-1-ylpiperidin-1-yl)quinoline-3-carbonitrile], the melting point is 220 to 230 °C.
The compound `Cn1ccnc1Sc1ccc(Nc2c(C#N)cnc3cc(N4CCC(N5CCCC5)CC4)ccc23)cc1Cl` [Example 16] had a melting point of 125 to 130 °C. It took 0.03 µM to reach half-maximal inhibition in the series with BxPC3 (IC50). 0.035 µM corresponded to half-maximal inhibition in series [1] (IC50). The midpoint of inhibition in the series with LoVo (Homo sapiens, 96 h), the IC50, lay at 0.009 µM.
For `COc1cc2c(Nc3ccc(Oc4cccnc4)cc3)c(C#N)cnc2cc1N1CCC(N2CCCC2)CC1` [Example 15, 6-Methoxy-4-[4-(pyridin-3-yloxy)-phenylamino]-7-(4-pyrrolidin-1-yl-piperidin-1-yl)-quinoline-3-carbonitrile], the melting point was 194 to 196 °C. Further, the midpoint of inhibition with BxPC3, the IC50, lay at 0.36 µM. Besides, in series [1], half-maximal inhibition (IC50) was put at 1.72 µM. In the series on LoVo (Homo sapiens, 96 h), this compound registered an IC50 of 0.261 µM.
With `CC(=O)Nc1cc2c(Nc3ccc(Sc4nccn4C)c(Cl)c3)c(C#N)cnc2cc1N1CCC(N2CCCC2)CC1` [Example 29, N-[4-({3-Chloro-4-[(1-methyl-1H-imidazole-2-yl)thio]phenyl}amino)-3-cyano-7-(4-pyrrolidin-1-ylpiperidin-1-yl)quinolin-6-yl]acetamide], the melting point lay within 243 to 255 °C. For the same compound, in the series with BxPC3, 0.008 µM corresponded to half-maximal inhibition (IC50). For the same compound, the IC50 in series [1] amounted to 1.64 µM. Also, the IC50 in the series with LoVo (Homo sapiens, 96 h) turned out to be 0.004 µM.
The compound `COc1cc2c(Nc3ccc(Sc4nccn4C)c(Cl)c3)c(C#N)cnc2cc1OCCN1CCC(N2CCCC2)CC1` [Example 36, 4-{3-Chloro-4-[(1-methyl-1H-imidazole-2-yl)sulfanyl]anilino}-6-methoxy-7-{2-[4-(1-pyrrolidinyl)-1-piperidinyl]ethoxy}-3-quinolinecarbonitrile] came in with a melting point of 127 to 130 °C.
In turn, `COc1cc2c(Nc3ccc(Sc4nccn4C)c(Cl)c3)c(C#N)cnc2cc1N1CCN(C2CCN(C)CC2)CC1` [Example 22, 4-({3-Chloro-4-[(1-methyl-1H-imidazole-2-yl)thio]phenyl}amino)-6-methoxy-7-[4-(1-methylpiperidin-4-yl)piperazin-1-yl]quinoline-3-carbonitrile] showed a melting point of 220 to 226 °C. For the same compound, in series [1], the concentration for half-maximal inhibition (IC50) turned out to be 0.273 µM. The half-maximal inhibitory concentration (IC50) in the series with LoVo (Homo sapiens, 96 h) worked out at 0.08 µM.
Consider `COCCOc1cc2c(Nc3ccc(Sc4nccn4C)c(Cl)c3)c(C#N)cnc2cc1N1CCC(N2CCCC2)CC1` [Example 17, 4-({3-Chloro-4-[(1-methyl-1H-imidazole-2-yl)thio]phenyl}amino)-6-(2-methoxyethoxy)-7-(4-pyrrolidin-1-ylpiperidin-1-yl)quinoline-3-carbonitrile], for which the melting point lay in the range of 238 to 241 °C. This compound displayed a concentration for half-maximal inhibition (IC50) in series [1] of 0.32 µM. In the series on LoVo (Homo sapiens, 96 h), 0.031 µM corresponded to half-maximal inhibition (IC50).
`COc1cc2c(Nc3ccc(Sc4nccn4C)c(Cl)c3)c(C#N)cnc2cc1N1CCN(CCn2ccnc2)CC1` [Example 23, 4-({3-Chloro-4-[(1-methyl-1H-imidazole-2-yl)thio]phenyl}amino)-7-{4-[2-(1H-imidazole-1-yl)ethyl]piperazin-1-yl}-6-methoxyquinoline-3-carbonitrile] came in with a melting point of 251 to 253 °C. Also, the half-maximal inhibitory concentration (IC50) in series [1] was 0.188 µM. The IC50 with LoVo (Homo sapiens, 96 h) was found to be 0.474 µM.
Compound `N#Cc1c[nH]c2cc(N3CCC(N4CCCC4)CC3)c([N+](=O)[O-])cc2c1=O` [Example 24, 6-Nitro-4-oxo-7-(4-pyrrolidin-1-ylpiperidin-1-yl)-1,4-dihydroquinoline-3-carbonitrile] had a melting point of 232 to 235 °C.
`COc1ccccc1Oc1ccc(Nc2c(C#N)cnc3cc(N4CCC(N5CCCC5)CC4)c(OC)cc23)cc1` [Example 12, 6-Methoxy-4-{[4-(2-methoxyphenoxy)phenyl]amino}-7-(4-pyrrolidin-1-ylpiperidin-1-yl)quinoline-3-carbonitrile, trifluoroacetate salt]: the half-maximal inhibitory concentration (IC50) with BxPC3 is 1.4 µM; in series [1], 0.21 µM; in the series with LoVo (Homo sapiens, 96 h), 0.46 µM.
`COc1cc2c(Nc3ccc(Sc4nccn4C)c(Cl)c3)c(C#N)cnc2cc1N1CCC(N2CCOCC2)CC1` [Example 21, 4-({3-Chloro-4-[(1-methyl-1H-imidazole-2-yl)thio]phenyl}amino)-6-methoxy-7-(4-morpholin-4-ylpiperidin-1-yl)quinoline-3-carbonitrile] had a melting point of 219 to 221 °C. Also, half-maximal inhibition in series [1] (IC50) required 0.181 µM. For the same compound, the IC50 with LoVo (Homo sapiens, 96 h) amounted to 0.02 µM.
Take `COc1cc2c(Nc3ccc(Sc4nccn4C)c(Cl)c3)c(C#N)cnc2cc1N1CCC(N2CCCCC2)CC1` [Example 19]: the figures for the IC50 (in series [1]; in the series with LoVo) were 0.199 µM and 0.008 µM, respectively.
With `Cn1ccnc1Sc1ccc(Nc2c(C#N)cnc3cc(N4CCC(N5CCCC5)CC4)c(N)cc23)cc1Cl` [Example 27, 6-Amino-4-[3-chloro-4-(1-methyl-1H-imidazole-2-ylsulfanyl)phenylamino]-7-(4-pyrrolidin-1-yl-piperidin-1-yl)quinoline-3-carbonitrile], the melting point is 265 to 267 °C.

(Values after patent US7767671B2, “3-Quinolinecarbonitrile protein kinase inhibitors” (Wyeth, priority 2004, dated 2010).)
